Laboratory results taken from patent US20030206893A1, “Cell proliferating agents” (priority 2002, published 2003).
Structures can show the parent of a compound that is named as a salt.

Experiments:
[1] = tested on: human skin fibroblast cell line (normal human dermal fibroblasts, neonatal); assay: Proliferative response of plant growth factors on human skin fibroblast cell line, 96-well assay (Cell Titer 96 Aqueous One, absorbance 490 nm); assay type: cell-based; conditions: 28 hours incubation, serum-free DMEM
Procedure: The proliferative response of plant growth factors on the human skin fibroblast cell line (Clonetics, Walkersville, Md., normal human dermal fibroblasts, neonatal, Catalog No. CC-2509) was determined in a 96-well assay system using serum-free medium as a control.
Stock solution of gibberellic acid (Sigma Chemical Company, St. Louis, Mo.) (0.001 M) was prepared in water and then diluted with serum-free Dulbecco's Modified Eagle's Medium (DMEM, Sigma Chemical Co., St. Louis, Mo.) to 10^−5, (“GA2”) and 10^−6 (“GA1”) M solutions. Cells were seeded into 96 well plates at a concentration of 3×10^3 cells in 100 microliters of DMEM containing 10 percent fetal bovine serum (FBS, Sigma Chemical Co., St. Louis, Mo.). Plates were incubated for 24 hours at 37° C. in a humidified, 5 percent CO2 atmosphere. After incubation, the medium was aspirated and the wells were rinsed twice with 100 microliters of serum-free DMEM. The final rinse was aspirated and 100 microliters of the 10^−5 and 10^−6 M of each solution was added to 10 wells. In addition, 100 microliters of vehicle (serum-free DMEM) was added to 10 wells as control. All wells were incubated for 28 hours at 37° C. in a humidified, 5 percent CO2 atmosphere. After incubation, 20 microliters of Cell Titer 96 Aqueous One Solution Reagent (Promega, Corp., Madison, Wis.) was added to all wells. The plates were swirled gently and placed back in the incubator for 45 minutes and spectrophotometric absorbance was read at 490 nm.
Statistical analysis was done by using one-way ANOVA.
Kinetin (Spectrum Chemical, CA) 1 mg/ml aqueous solution as supplied by the Company was used as a stock solution. Further dilutions were made with serum-free Dulbecco's Modified Eagle's Medium (DMEM, Sigma Chemical Co., St. Louis, Mo.) to 10^−5, (“K2”) and 10^−6 (“K1”) M solutions. Cells were seeded into 96 well plates at a concentration of 3×10^3 cells in 100 microliters of DMEM containing 10 percent fetal bovine serum (FBS, Sigma Chemical Co., St. Louis, Mo.). Plates were incubated for 24 hours at 37° C. in a humidified, 5 percent CO2 atmosphere. After incubation, the medium was aspirated and the wells were rinsed twice with 100 microliters of serum-free DMEM. The final rinse was aspirated and 100 microliters of the 10^−5 and 10^−6 M of each solution was added to 10 wells. In addition, 100 microliters of vehicle (serum-free DMEM) was added to 10 wells as control. All wells were incubated for 28 hours at 37° C. in a humidified, 5 percent CO2 atmosphere. After incubation, 20 microliters of Cell Titer 96 Aqueous One Solution Reagent (Promega, Corp., Madison, Wis.) was added to all wells. The plates were swirled gently and placed back in the incubator for 45 minutes and spectrophotometric absorbance was read at 490 nm. […]

human fibroblasts = conditions: reported by S. I. Rattan, Biochem Biophys Res. Comm., 201, 665-672, 1994; cited from earlier work
[2] = 10^-5 and 10^-6 M solutions, 3x10^3 cells seeded
[3] = 10^-4, 10^-5 and 10^-6 M solutions, 2x10^3 cells seeded

SMILES | effect on cell proliferation versus serum-free medium control (one-way ANOVA) [1, 2] | effect on cell proliferation versus serum-free medium control (one-way ANOVA) [1, 3] | effect on onset of aging characteristics in human fibroblasts (human fibroblasts)
C=C1C[C@]23C[C@@]1(O)CC[C@H]2[C@@]12C=C[C@H](O)[C@@](C)(C(=O)O1)[C@H]2[C@@H]3C(=O)O [gibberellic acid] | good cell proliferating agent | – | –
CC/C=C\C[C@H]1C(=O)CC[C@@H]1CC(=O)O [jasmonic acid] | – | strong cell proliferating agent | –
c1coc(CNc2ncnc3[nH]cnc23)c1 [kinetin] | good cell proliferating agent | – | delay the onset of aging characteristics
C/C(=C\CNc1ncnc2[nH]cnc12)CO [zeatin, trans-zeatin HCl] | – | good cell proliferating agent | –
